Drawing on ChEMBL document CHEMBL4680214, “Fluorinated derivatives of 2-phenyl-3-hydroxy-4(1H)-quinolinone as tubulin polymerization inhibitors” (Eur J Med Chem, 2020), this text covers Activity for one compound.

In assay [1] the test system is CCRF-CEM. The assay can be described thus: Cell cycle arrest in human CCRF-CEM cells assessed as accumulation at sub-G1 phase at IC50 measured after 24 hrs by propidium iodide staining based flow cytometry (reference value: 2%). It is filed as functional.
In assay [2] the test system is HCT-116. Nature of the assay: Cell cycle arrest in human HCT-116 cells assessed as BrdU incorporation at 5 times IC50 measured after 24 hrs by propidium iodide/immunostaining based flow cytometry (reference value: 48.6%). It is filed as functional.
Assay [3] has as its system HCT-116. Nature of the assay: Cell cycle arrest in human HCT-116 cells assessed as accumulation at S phase at 5 times IC50 measured after 24 hrs by propidium iodide staining based flow cytometry (reference value: 37.7%). It is filed as functional.
Assay [4] relates to CCRF-CEM. The assay can be described thus: Cell cycle arrest in human CCRF-CEM cells assessed as phosphorylation of histone H3 at Ser10 at 5 times IC50 measured after 24 hrs by propidium iodide staining based flow cytometry (reference value: 2.0%). It is filed as functional. In general terms: Flow cytometry measures light scatter and fluorescence of single cells or particles in a stream.

Assay [5] concerns CCRF-CEM. The assay can be described thus: Cell cycle arrest in human CCRF-CEM cells assessed as accumulation at S phase at 5 times IC50 measured after 24 hrs by propidium iodide staining based flow cytometry (reference value: 42.2%). Format: functional.
Assay [6] concerns CCRF-CEM. The assay can be described thus: Cell cycle arrest in human CCRF-CEM cells assessed as accumulation at G2/M phase at 5 times IC50 measured after 24 hrs by propidium iodide staining based flow cytometry (reference value: 22.6%). It is filed as functional.
In assay [7] the test system is CCRF-CEM. Nature of the assay: Cell cycle arrest in human CCRF-CEM cells assessed as accumulation at G0/G1 phase at 5 times IC50 measured after 24 hrs by propidium iodide staining based flow cytometry (reference value: 35.2%). It is filed as functional.
For assay [8], the system named is CCRF-CEM. Nature of the assay: Cell cycle arrest in human CCRF-CEM cells assessed as BrU incorporation at 5 times IC50 measured after 24 hrs by propidium iodide/immunostaining based flow cytometry (reference value: 52.2%). It is filed as functional.
Assay [9] has as its system CCRF-CEM. The assay can be described thus: Cell cycle arrest in human CCRF-CEM cells assessed as decrease in Bcl2 expression at 2 times IC50 measured after 24 hrs by Western blot analysis. It is filed as functional, cell-based. A general note: Immunoblotting shows a protein as a band on a membrane.
The test system of assay [10] is HCT-116. Nature of the assay: Cell cycle arrest in human HCT-116 cells assessed as accumulation at G2/M phase at IC50 measured after 24 hrs by propidium iodide staining based flow cytometry (reference value: 27.0%). Format: functional.
The subject of assay [11] is CCRF-CEM. Nature of the assay: Cell cycle arrest in human CCRF-CEM cells assessed as accumulation at G0/G1 phase at IC50 measured after 24 hrs by propidium iodide staining based flow cytometry (reference value: 35.2%). Format: functional.

Activity calls are given as the source filed them. The calls are words filed in the database; no cut-off is given here.

Take `O=c1c(O)c(-c2ccccc2)[nH]c2cc(F)c(Sc3ccccc3)cc12`: the Activity is 5.8% in the assay with CCRF-CEM [1]; 41.6% with HCT-116 [2]; 33.2% in the assay on HCT-116 [3]; 4.9% in the assay on CCRF-CEM [4]; 21.6% in the assay on CCRF-CEM [5]; 20.2% in the assay on CCRF-CEM [6]. In addition, the Activity came out at 58.2% in the assay on CCRF-CEM [7], 11.4% in the assay on CCRF-CEM [8], 33.2% with HCT-116 [10] and 1.8% with CCRF-CEM [11]. Moreover, the result in the assay with CCRF-CEM [9] was inactive.
